Measurements published in patent US12312370B2, “Immunoproteasome inhibitors” (Principia Biopharma Inc., priority 2017, dated 2025).
pIC50: −log10 of the molar value.

How the values were obtained:
[1] = molecular target: immunoproteasome LMP7/B5i subunit (Homo sapiens, UniProt P28062); assay: Caliper-based proteasome enzymatic activity assay, LMP7; type: biochemical; details: human recombinant immunoproteasome 0.3 nM, FAM-labeled peptide substrate 1 μM, rt 3 h; read-out: LMP7 subunit IC50
[2] = molecular target: constitutive proteasome β5c unit (Homo sapiens, UniProt P28074); assay: Caliper-based proteasome enzymatic activity assay, β5c; type: biochemical; details: human recombinant constitutive proteasome 0.3 nM, FAM-labeled peptide substrate 1 μM, rt 3 h; read-out: β5c subunit IC50

Row | Structure (SMILES) | pIC50 [1] | pIC50 [2]
1 | CC(C)(C=C(C#N)C(=O)N1CC[C@H](OC(=O)N[C@@H](Cc2ccccc2)B(O)O)C1)N1CCC(F)(F)C1 [Example 89, ((R)-1-(((((S)-1-(2-cyano-4-(3,3-difluoropyrrolidin-1-yl)-4-methylpent-2-enoyl)pyrrolidin-3-yl)oxy)carbonyl)amino)-2-phenylethyl)boronic acid] | 8.74 | 5.95
2 | CC(C)(C=C(C#N)C(=O)N1CCC[C@@H](NC(=O)N[C@@H](Cc2ccccc2)B(O)O)C1)N1CCC(F)(F)C1 [Example 101, ((R)-1-(3-((R)-1-(2-cyano-4-(3,3-difluoropyrrolidin-1-yl)-4-methylpent-2-enoyl)piperidin-3-yl)ureido)-2-phenylethyl)boronic acid] | 6.84 | 5.41
3 | CC(C)C=C(C#N)C(=O)N(C)c1cccc(C[C@H](NCC(F)(F)F)C(=O)N[C@@H](Cc2ccccc2)B(O)O)c1 [Example 26, ((R)-1-((S)-3-(3-(2-cyano-N,4-dimethylpent-2-enamido)phenyl)-2-((2,2,2-trifluoroethyl)amino)propanamido)-2-phenylethyl)boronic acid] | 7.96 | 6.44
4 | CC(C)(C=C(C#N)C(=O)N1C2CCC1(COC(=O)N[C@@H](Cc1ccccc1)B(O)O)CC2)N1CCOC2(CC2)C1 [Example 116, (R)-(1-((((7-(2-cyano-4-methyl-4-(4-oxa-7-azaspiro[2.5]octan-7-yl)pent-2-enoyl)-7-azabicyclo[2.2.1]heptan-1-yl)methoxy)carbonyl)amino)-2-phenylethyl)boronic acid] | 8.89 | 6.12
5 | CC(C)(C=C(C#N)C(=O)N1C2CCC1(COC(=O)N[C@@H](CCc1ccccc1)B(O)O)CC2)N1CCC(F)(F)C1 [Example 77, (R)-(1-((((7-(2-cyano-4-(3,3-difluoropyrrolidin-1-yl)-4-methylpent-2-enoyl)-7-azabicyclo[2.2.1]heptan-1-yl)methoxy)carbonyl)amino)-3-phenylpropyl)boronic acid] | 9.05 | 5.48
6 | CC(C)(C=C(C#N)C(=O)N1CCC[C@@H]1CNC(=O)N[C@@H](Cc1coc2ccccc12)B(O)O)N1CCC(F)(F)CC1 [Example 49, ((R)-2-(benzofuran-3-yl)-1-(3-(((R)-1-(2-cyano-4-(4,4-difluoropiperidin-1-yl)-4-methylpent-2-enoyl)pyrrolidin-2-yl)methyl)ureido)ethyl)boronic acid] | 8.28 | 5.74
7 | CC(C)(C=C(C#N)C(=O)N1CCCC[C@@H](OC(=O)N[C@@H](CC2=CCCC2)B(O)O)C1)N1CCOCC1 [Example 138, ((R)-1-(((((R)-1-(2-cyano-4-methyl-4-morpholinopent-2-enoyl)azepan-3-yl)oxy)carbonyl)amino)-2-(cyclopent-1-en-1-yl)ethyl)boronic acid] | 8.92 | < 5.30
8 | CC(C)(C=C(C#N)C(=O)N1CCCC[C@@H](OC(=O)N[C@@H](Cc2ccccc2)B(O)O)C1)N1CCC(F)(F)C1 (single isomer, unassigned) [Example 105] | 8.80 | 5.87
9 | C=CC(=O)N1CCC[C@H](OC(=O)N[C@@H](Cc2ccc(C(F)(F)F)cc2)B(O)O)C1 [Example 66, ((R)-1-(((((S)-1-acryloylpiperidin-3-yl)oxy)carbonyl)amino)-2-(4-(trifluoromethyl)phenyl)ethyl)boronic acid] | 6.83 | < 5.30
10 | CC(C)(C)/C=C(\C#N)C(=O)N1CC[C@H](OC(=O)N[C@@H](Cc2ccccc2)B(O)O)C1 [Example 87, ((R)-1-(((((S)-1-((E)-2-cyano-4,4-dimethylpent-2-enoyl)pyrrolidin-3-yl)oxy)carbonyl)amino)-2-phenylethyl)boronic acid] | 8.72 | 6.24
11 | CN1CCN(C(C)(C)C=C(C#N)C(=O)N2CCC[C@H](OC(=O)N[C@@H](Cc3ccccc3)B(O)O)C2)CC1 [Example 80, ((R)-1-(((((S)-1-(2-cyano-4-methyl-4-(4-methylpiperazin-1-yl)pent-2-enoyl)piperidin-3-yl)oxy)carbonyl)amino)-2-phenylethyl)boronic acid] | 8.41 | 5.86
12 | CC(C)(C=C(C#N)C(=O)N1CCC[C@H](OC(=O)N[C@@H](CC2=CCCC2)B(O)O)C1)N1CCOCC1 [Example 121, ((R)-1-(((((S)-1-(2-cyano-4-methyl-4-morpholinopent-2-enoyl)piperidin-3-yl)oxy)carbonyl)amino)-2-(cyclopent-1 en-1-yl)ethyl)boronic acid] | 8.11 | < 5.30
13 | C[C@@H]1CN(C(C)(C)C=C(C#N)C(=O)N2CCCC[C@@H](OC(=O)N[C@@H](Cc3ccccc3)B(O)O)C2)C[C@@H](C)O1 [Example 129] | 8.57 | 6.13
14 | CC(C)C=C(C#N)C(=O)N1CCC[C@@H]1COC[C@H](NCC(F)(F)F)C(=O)N[C@@H](Cc1coc2ccccc12)B(O)O [Example 31, ((R)-2-(benzofuran-3-yl)-1-((S)-3-(((R)-1-(2-cyano-4-methylpent-2-enoyl)pyrrolidin-2-yl)methoxy)-2-((2,2,2-trifluoroethyl)amino)propanamido)ethyl)boronic acid] | 7.94 | 7.40
15 | CC1(C)CN(C(C)(C)C=C(C#N)C(=O)N2C3CCC2(COC(=O)N[C@@H](Cc2ccccc2)B(O)O)CC3)CCO1 [Example 119, (R)-(1-((((7-(2-cyano-4-(2,2-dimethylmorpholino)-4-methylpent-2-enoyl)-7-azabicyclo[2.2.1]heptan-1-yl)methoxy)carbonyl)amino)-2-phenylethyl)boronic acid] | 9.00 | 6.16
16 | CC(C)(C=C(C#N)C(=O)N1CCCC[C@@H](OC(=O)N[C@@H](Cc2ccccc2)B(O)O)C1)N1CCOC2(CC2)C1 [Example 133, ((R)-1-(((((R)-1-(2-cyano-4-methyl-4-(4-oxa-7-azaspiro[2.5]octan-7-yl)pent-2-enoyl)azepan-3-yl)oxy)carbonyl)amino)-2-phenylethyl)boronic acid] | 8.85 | 6.03
17 | C[C@H]1CN(C(C)(C)C=C(C#N)C(=O)N2CCCC[C@@H](OC(=O)N[C@@H](Cc3ccccc3)B(O)O)C2)C[C@H](C)O1 [Example 128, ((R)-1-(((((R)-1-(2-cyano-4-((2S,6S)-2,6-dimethylmorpholino)-4-methylpent-2-enoyl)azepan-3-yl)oxy)carbonyl)amino)-2-phenylethyl)boronic acid] | 8.33 | 5.87
18 | CC(C)(C=C(C#N)C(=O)N1CCC[C@H](OC(=O)N[C@@H](CC2=CCCC2)B(O)O)C1)N1CCC(F)(F)C1 [Example 117, ((R)-1-(((((S)-1-(2-cyano-4-(3,3-difluoropyrrolidin-1-yl)-4-methylpent-2-enoyl)piperidin-3-yl)oxy)carbonyl)amino)-2-(cyclopent-1-en-1-yl)ethyl)boronic acid] | 8.37 | < 5.30
19 | CC(C)(C=C(C#N)C(=O)N1CCCC[C@@H](OC(=O)N[C@@H](Cc2ccccc2)B(O)O)C1)N1CC2CC(C1)O2 [Example 134, ((1R)-1-(((((3R)-1-(4-(6-oxa-3-azabicyclo[3.1.1]heptan-3-yl)-2-cyano-4-methylpent-2-enoyl)azepan-3-yl)oxy)carbonyl)amino)-2-phenylethyl)boronic acid] | 8.72 | 6.00
20 | CC(C)C=C(C#N)C(=O)NCCCC[C@H](NS(C)(=O)=O)C(=O)N[C@@H](Cc1ccccc1)B(O)O [Example 12, ((R)-1-((S)-6-(2-cyano-4-methylpent-2-enamido)-2-(methylsulfonamido)hexanamido)-2-phenylethyl)boronic acid] | 7.87 | 7.68
21 | C=CC(=O)N1C[C@H](F)[C@H](OC(=O)N[C@@H](Cc2ccccc2)B(O)O)C1 [Example 115, ((R)-1-(((((3R,4S)-1-acryloyl-4-fluoropyrrolidin-3-yl)oxy)carbonyl)amino)-2-phenylethyl)boronic acid] | 7.74 | 6.68
22 | C[C@@H]1CN(C(C)(C)C=C(C#N)C(=O)N2C3CCC2(COC(=O)N[C@@H](Cc2ccccc2)B(O)O)CC3)C[C@H](C)O1 [Example 114, ((R)-1-((((7-(2-cyano-4-((2S,6R)-2,6-dimethylmorpholino)-4-methylpent-2-enoyl)-7-azabicyclo[2.2.1]heptan-1-yl)methoxy)carbonyl)amino)-2-phenylethyl)boronic acid] | 8.68 | 5.78
23 | CC(C)(C=C(C#N)C(=O)N1CCC[C@](C)(OC(=O)N[C@@H](Cc2ccccc2)B(O)O)C1)N1CCC(F)(F)C1 (single isomer, unassigned) [Example 92] | 7.37 | < 5.30
24 | CC(C)(C=C(C#N)C(=O)N1CCC[C@@H](OC(=O)N[C@@H](Cc2ccccc2)B(O)O)C1)N1CCC(F)(F)C1 [Example 55, ((R)-1-(((((R)-1-(2-cyano-4-(3,3-difluoropyrrolidin-1-yl)-4-methylpent-2-enoyl)piperidin-3-yl)oxy)carbonyl)amino)-2-phenylethyl)boronic acid] | 8.29 | 5.41
25 | C=CC(=O)N1CCC[C@H](OC(=O)N[C@@H](Cc2coc3ccccc23)B(O)O)C1 [Example 65, ((R)-1-(((((S)-1-acryloylpiperidin-3-yl)oxy)carbonyl)amino)-2-(benzofuran-3-yl)ethyl)boronic acid] | 8.12 | 6.38
26 | C[C@H]1CN(C(C)(C)C=C(C#N)C(=O)N2CCCC[C@@H](OC(=O)N[C@@H](Cc3ccccc3)B(O)O)C2)CCO1 [Example 130, ((R)-1-(((((R)-1-(2-cyano-4-methyl-4-((S)-2-methylmorpholino)pent-2-enoyl)azepan-3-yl)oxy)carbonyl)amino)-2-phenylethyl)boronic acid] | 8.55 | 5.69
27 | C[C@@H]1CN(C(C)(C)C=C(C#N)C(=O)N2CCCC[C@@H](OC(=O)N[C@@H](Cc3ccccc3)B(O)O)C2)CCO1 [Example 131, ((R)-1-(((((R)-1-(2-cyano-4-methyl-4-((R)-2-methylmorpholino)pent-2-enoyl)azepan-3-yl)oxy)carbonyl)amino)-2-phenylethyl)boronic acid] | 8.59 | 5.83
